In patent US20060100431A1, “Biologically active compounds” (Amura Therapeutics Limited, priority 2002, published 2006):
Where two headings read alike, the source gives them in different places.

Assays:
[1] = biological target: Wild-type cruzipain (Trypanosoma cruzi, UniProt P25779); experiment: Trypanosoma cruzi cruzipain peptidase activity assay (Ki); type: biochemical
In short: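 Native cruzipain from T. cruzi Dm28 epimastigotes, 2.5 nM, in 100 mM sodium phosphate pH 6.75 with 1 mM EDTA and 10 mM L-cysteine, 25 °C, DMSO <1%. Rates taken from continuous fluorogenic substrate read; Ki by regression assuming reversible pure-competitive inhibition.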

[2] = biological target: T1, CPB2.8ΔCTE (Leishmania mexicana, UniProt P36400); experiment: Leishmania mexicana cysteine protease B (CPB) peptidase activity assay (Ki); type: biochemical; conditions: Ki, inhibitors of Leismania mexicana CPB protease
T1 construct: Wild-type recombinant CPB without the C-terminal extention (i.e. CPB2.8ΔCTE); Dr. Jeremy Mottram (Wellcome Centre for Molecular Parasitology, University of Glasgow)
Procedure: Unless otherwise stated, all general chemicals and biochemicals were purchased from either the Sigma Chemical Company, Poole, Dorset, U.K or from Fisher Scientific UK, Loughborough, Leicestershire, U.K. Absorbance assays were carried out in flat-bottomed 96-well plates (Spectra; Greiner Bio-One Ltd., Stonehouse, Gloucestershire, U.K.) using a SpectraMax PLUS384 plate reader (Molecular Devices, Crawley, U.K.). Fluorescence high throughput assays were carried out in either 384-well microtitre plates (Corning Costar 3705 plates, Fisher Scientific) or 96-well ‘U’ bottomed Microfluor W1 microtitre plates (Thermo Labsystems, Ashford, Middlesex, U.K.). Fluorescence assays were monitored using a SpectraMax Gemini fluorescence plate reader (Molecular Devices). For substrates employing either a 7-amino-4-methylcoumarin (AMC) or a 7-amino-4-trifluoromethylcoumarin (AFC) fluorophore, assays were monitored at an excitation wavelength of 365 nm and an emission wavelength of 450 nm and the fluorescence plate reader calibrated with AMC. For substrates employing a 3-amino-benzoyl (Abz) fluorophore, assays were monitored at an excitation wavelength of 310 nm and an emission wavelength of 445 nm; the fluorescence plate reader calibrated with 3-amino-benzamide (Fluka). Unless otherwise indicated, all the peptidase substrates were purchased from Bachem UK, St Helens, Merseyside, UK. Substrates utilizing fluorescence resonance energy transfer methodology (i.e. FRET-based substrates) were synthesized at Incenta Limited using published methods (Atherton & Sheppard, Solid Phase Peptide Synthesis, IRL Press, Oxford, U.K, 1989) and employed Abz (2-aminobenzoyl) as the fluorescence donor and 3-nitro-tyrosine [Tyr(NO2)] as the fluorescence quencher (Meldal, M. and Breddam, K., Anal. Biochem, 195, 141-147, 1991). Hydroxyethylpiperazine ethanesulfonate (HEPES), tris-hydroxylmethyl aminomethane (tris) base, bis-tris-propane and all the biological detergents (e.g. CHAPS, zwittergents, etc.) were purchased from CN Biosciences UK, Beeston, Nottinghamshire, U.K. Glycerol was purchased from Amersham Pharmacia Biotech, Little Chalfont, Buckinghamshire, U.K. Stock solutions of substrate or inhibitor were made up to 10 mM in 100% dimethylsulfoxide (DMSO) (Rathburns, Glasgow, U.K.) and diluted as appropriately required. In all cases the DMSO concentration in the assays was maintained at less than 1% (vol./vol.).
Assay protocols were based on literature precedent (Table 4; Barrett, A. J., Rawlings, N. D. and Woessner, J. F., 1998, Handbook of Proteolytic Enzymes, Academic Press, London and references therein) and modified as required to suit local assay protocols. Enzyme was added as required to initiate the reaction and the activity, as judged by the change in fluorescence upon conversion of substrate to product, was monitored over time. All assays were carried out at 25±1° C.
Wild-type recombinant CPB without the C-terminal extention (i.e. CPB2.8ΔCTE; Sanderson, S. J., et. al., Biochem. J., 347, 383-388, 2000) was obtained from Dr. Jeremy Mottram (Wellcome Centre for Molecular Parasitology, The Anderson College, University of Glasgow, Glasgow, U.K.). Activity assays were carried out in 100 mM sodium acetate; pH 5.5 containing 1 mM EDTA; 200 mM NaCl and 10 mM DTT (Alves, L. C., et. al., Mol. Biochem. Parasitol, 116, 1-9, 2001) using 0.25 nM enzyme. […] The rate of conversion of substrate to product was derived from the slope of the increase in fluorescence monitored continuously over time.
The apparent inhibition constant (Ki) for each compound was determined on the basis that inhibition was reversible and occurred by a pure-competitive mechanism. The Ki values were calculated, from the dependence of enzyme activity as a function of inhibitor concentration, by direct regression analysis (Prism v 3.02) using Equation 2 (Cornish-Bowden, A., 1995.). [formula]

[3] = read-out: Ki, inhibitors of cruzain and cruzipains

T1 sequence (P36400 126-343, stated change not applied): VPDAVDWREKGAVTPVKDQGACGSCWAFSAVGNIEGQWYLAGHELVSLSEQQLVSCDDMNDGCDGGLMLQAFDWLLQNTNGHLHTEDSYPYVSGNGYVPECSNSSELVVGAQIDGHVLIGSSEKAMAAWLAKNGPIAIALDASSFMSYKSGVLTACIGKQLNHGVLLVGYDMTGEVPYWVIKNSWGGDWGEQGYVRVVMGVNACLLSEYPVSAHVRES
Wild-type cruzipain, sequence (P25779 whole entry): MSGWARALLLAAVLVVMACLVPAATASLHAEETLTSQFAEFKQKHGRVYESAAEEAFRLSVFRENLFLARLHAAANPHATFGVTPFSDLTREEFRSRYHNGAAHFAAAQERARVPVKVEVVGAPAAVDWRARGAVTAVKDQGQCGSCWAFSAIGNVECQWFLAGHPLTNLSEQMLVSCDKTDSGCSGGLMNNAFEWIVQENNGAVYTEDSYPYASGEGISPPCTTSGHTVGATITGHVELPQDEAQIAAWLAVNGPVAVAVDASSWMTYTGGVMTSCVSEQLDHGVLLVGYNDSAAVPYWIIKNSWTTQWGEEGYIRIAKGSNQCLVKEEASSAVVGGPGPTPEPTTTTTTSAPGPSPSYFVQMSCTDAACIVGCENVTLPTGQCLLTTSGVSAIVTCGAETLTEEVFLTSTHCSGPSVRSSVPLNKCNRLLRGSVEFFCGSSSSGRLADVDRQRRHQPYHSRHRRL

CC(C)C[C@H](NC(=O)c1ccc(C(C)(C)C)cc1)C(=O)N1CC[C@@H]2[C@H]1C(=O)CN2C(=O)c1ccccc1 [Example 1, (3aR,6aS)-N-[(1S)-1-(4-Benzoyl-6-oxo-hexahydro-pyrrolo[3,2-b]pyrrole-1-carbonyl)-3-methyl-butyl]-4-tert-butylbenzamide]
Ki [1]: < 5 µM
Ki [2]: < 5 µM

CC(C)C[C@H](NC(=O)c1ccc(C(C)(C)C)cc1)C(=O)N1CC[C@@H]2[C@H]1C(=O)CN2C(=O)c1cccnc1 [Example 5, (3aR,6aS)-4-tert-Butyl-N-{(1S)-3-methyl-1-[6-oxo-4-(pyridine-3-carbonyl)-hexahydro-pyrrolo[3,2-b]pyrrole-1-carbonyl]-butyl}-benzamide]
Ki [1, 3]: < 5 µM
Ki [2]: < 5 µM

CC(C)C[C@H](NC(=O)c1ccc(C(C)(C)C)cc1)C(=O)N1CC[C@@H]2[C@H]1C(=O)CN2C(=O)c1ccncc1 [Example 6, (3aR,6aS)-4-tert-Butyl-N-{(1S)-3-methyl-1-[6-oxo-4-(pyridine-4-carbonyl)-hexahydro-pyrrolo[3,2-b]pyrrole-1-carbonyl]-butyl}-benzamide]
Ki [1, 3]: < 5 µM
Ki [2]: < 5 µM

CC(C)C[C@H](NC(=O)c1ccc(N(C)C)cc1)C(=O)N1CC[C@@H]2[C@H]1C(=O)CN2C(=O)c1cccnc1 [Example 21, (3aR,6aS)-4-Dimethylamino-N-{(1S)-3-methyl-1-[6-oxo-4-(pyridine-3-carbonyl)-hexahydro-pyrrolo[3,2-b]pyrrole-1-carbonyl]-butyl}-benzamide]
Ki [1, 3]: < 5 µM
Ki [2]: < 5 µM

CC(C)C[C@H](NC(=O)c1ccc(C(C)(C)C)cc1)C(=O)N1CC[C@@H]2[C@H]1C(=O)CN2C(=O)c1cccc(Oc2ccccc2)c1 [Example 24, (3aR,6aS)-4-tert-Butyl-N-{(1S)-3-methyl-1-[6-oxo-4-(3-phenoxy-benzoyl)-hexahydro-pyrrolo[3,2-b]pyrrole-1-carbonyl]-butyl}-benzamide]
Ki [1, 3]: < 5 µM
Ki [2]: < 5 µM

CC(C)C[C@H](NC(=O)c1ccc(C(C)(C)C)cc1)C(=O)N1CC[C@@H]2[C@H]1C(=O)CN2C(=O)c1cccc(Br)c1 [Example 25, (3aR,6aS)-N-{(1S)-1-[4-(3-Bromo-benzoyl)-6-oxo-hexahydro-pyrrolo[3,2-b]pyrrole-1-carbonyl]-3-methyl-butyl}-4-tert-butyl-benzamide]
Ki [1, 3]: < 5 µM
Ki [2]: < 5 µM

CC(C)C[C@H](NC(=O)c1ccc(C(C)(C)C)cc1)C(=O)N1CC[C@@H]2[C@H]1C(=O)CN2C(=O)c1ccc(-n2cncn2)cc1 [Example 26, (3aR,6aS)-4-tert-Butyl-N-{(1S)-3-methyl-1-[6-oxo-4-(4-[1,2,4]triazol-1-yl-benzoyl)-hexahydro-pyrrolo[3,2-b]pyrrole-1-carbonyl]-butyl}-benzamide]
Ki [1, 3]: < 5 µM
Ki [2]: < 5 µM

CC(C)C[C@H](NC(=O)c1ccc(C(C)(C)C)cc1)C(=O)N1CC[C@@H]2[C@H]1C(=O)CN2S(=O)(=O)c1ccccc1 [Example 119, (3aR,6aS)-N-[(1S)-1-(4-Benzenesulfonyl-6-oxo-hexahydro-pyrrolo[3,2-b]pyrrole-1-carbonyl)-3-methyl-butyl]-4-tert-butyl-benzamide]
Ki [2]: < 5 µM

CC(C)C[C@H](NC(=O)c1ccc(-c2cccs2)cc1)C(=O)N1CC[C@@H]2[C@H]1C(=O)CN2S(=O)(=O)c1ccccc1 [Example 120, (3aR,6aS)-N-[(1S)-1-(4-Benzenesulfonyl-6-oxo-hexahydropyrrolo [3,2-b]pyrrole-1-carbonyl)-3-methyl-butyl]-4-thiophen-2-yl-benzamide]
Ki [2]: < 5 µM

CC(C)C[C@H](NC(=O)c1ccc(N(C)C)cc1)C(=O)N1CC[C@@H]2[C@H]1C(=O)CN2C(=O)[C@H](CC(N)=O)NC(=O)OCc1ccccc1 [Example 148, (3aS,6aR)-((1S)-1-Carbamoylmethyl-2-{4-[(2S)-2-(4-dimethylaminobenzoylamino)-4-methyl-pentanoyl]-3-oxo-hexahydro-pyrrolo[3,2-b]pyrrol-1-yl}-2-oxo-ethyl)-carbamic acid benzyl ester]
Ki [2]: < 5 µM

CC(C)C[C@H](NC(=O)c1cccc(CN)c1)C(=O)N1CC[C@@H]2[C@H]1C(=O)CN2C(=O)[C@H](C)c1ccccc1 [Example 176, (3aR,6aS)-3-Aminomethyl-N-{(1S)-3-methyl-1-[6-oxo-4-((2R)-2-phenyl-propionyl)-hexahydro-pyrrolo[3,2-b]pyrrole-1-carbonyl]-butyl}-benzamide]
Ki [2]: < 5 µM

CC(C)C[C@H](NC(=O)c1cccc(CN)c1)C(=O)N1CC[C@@H]2[C@H]1C(=O)CN2C(=O)[C@@H](C)c1ccccc1 [Example 177, (3aR,6aS)-3-Aminomethyl-N-{(1S)-3-methyl-1-[6-oxo-4-((2S)-2-phenyl-propionyl)-hexahydro-pyrrolo[3,2-b]pyrrole-1-carbonyl]-butyl}-benzamide]
Ki [2]: < 5 µM

CC(=O)N(C)CC(=O)N1CC(=O)[C@@H]2[C@H]1CCN2C(=O)[C@H](CC(C)C)NC(=O)c1ccc(N(C)C)cc1 [Example 201, (3aR,6aS)-N-((1S)-1-{4-[2-(Acetyl-methyl-amino)-acetyl]-6-oxo-hexahydro-pyrrolo[3,2-b]pyrrole-1-carbonyl}-3-methyl-butyl)-4-dimethylamino-benzamide]
Ki [2]: < 5 µM

CC(C)CC[C@H](N)C(=O)N1CC(=O)[C@@H]2[C@H]1CCN2C(=O)[C@H](CC(C)C)NC(=O)c1ccc(N(C)C)cc1 [Example 213, (3aR,6aS)-N-{(1S)-1-[4-((2S)-2-Amino-5-methyl-hexanoyl)-6-oxo-hexahydro-pyrrolo[3,2-b]pyrrole-1-carbonyl]-3-methyl-butyl}-4-dimethylamino-benzamide]
Ki [2]: < 5 µM

CC(C)C[C@H](NC(=O)c1ccc(N(C)C)cc1)C(=O)N1CC[C@@H]2[C@H]1C(=O)CN2C(=O)[C@@H](N)CC1CCCCC1 [Example 215, (3aR,6aS)-N-{(1S)-1-[4-((2S)-2-Amino-3-cyclohexyl-propionyl)-6-oxo-hexahydro-pyrrolo[3,2-b]pyrrole-1-carbonyl]-3-methyl-butyl}-4-dimethylamino-benzamide]
Ki [2]: < 5 µM

CCCC(C)C(=O)N1CC(=O)[C@@H]2[C@H]1CCN2C(=O)[C@H](CC(C)C)NC(=O)c1ccc(N(C)C)cc1 (stereo partly drawn) [Example 230, (3aR,6aS)-4-Dimethylamino-N-{(1S)-3-methyl-1-[4-(2-methyl-pentanoyl)-6-oxo-hexahydro-pyrrolo[3,2-b]pyrrole-1-carbonyl]-butyl}-benzamide]
Ki [2]: < 5 µM

CCCCCC(=O)N1CC(=O)[C@@H]2[C@H]1CCN2C(=O)[C@H](CC(C)C)NC(=O)c1ccc(N(C)C)cc1 [Example 234, (3aR,6aS)-4-Dimethylamino-N-[(1S)-1-(4-hexanoyl-6-oxo-hexahydro-pyrrolo[3,2-b]pyrrole-1-carbonyl)-3-methyl-butyl]-benzamide]
Ki [2]: < 5 µM

Cc1ccc(C[C@H](NC(=O)c2ccc(C(C)(C)C)cc2)C(=O)N2CC[C@@H]3[C@H]2C(=O)CN3C(=O)Cc2ccccc2)cc1 [Example 360, (3aR,6aS)-4-tert-Butyl-N-[(1S)-1-(4-methyl-benzyl)-2-oxo-2-(6-oxo-4-phenylacetyl-hexahydro-pyrrolo[3,2-b]pyrrole-1-yl)-ethyl]-benzamide]
Ki [2]: < 5 µM
